Test system: human sperm
Test: Human sperm cultured in PCAGH or monomeric sugars: sperm motility vs control HTF (Table 3)
Assay type: cell-based
Conditions: for sperm motility compared to control HTF: human sperm; for sperm motility throughout a 24-hr culture period: compared to sperm cultured in arabinose and galactose or in control medium with no polysaccharides
Description: Sperm Motility. Sperm motility measurements may be performed by subjective visual determination using a phase contrast microscope to group sperm into total percent motile (swimming), and total percent progressively motile (swimming forward). AIso the speed of those sperm which are progressively motile is determined, i.e., fast, medium, slow.
Alternatively, CASA can be used to objectively determine the motility characteristics of individual sperm cells in a sample (Davis, Infertility & Reproductive Medicine Clinics 3:341, 1992). A 7 μl sperm sample is placed onto a slide or chamber designed for CASA, and the computer tracks individual sperm cells and determines their motility as to speed over distance. Data is then expressed as percent motile, and specific measurements are given for parameters, such as mean path velocity and track speed. The measurements of velocity and linearity correlate with future fertility in several species studied.
Samples containing sperm are incubated at 37° C. (human) or 39° C. (animal) in 5% CO2 and humidified air. At various timed intervals, sperm survival rate, motility characteristics, functional membrane health and membrane lipid peroxidation levels are determined as described in Example 2.

Molecule	sperm motility compared to control HTF (culture time 3 hr)	sperm motility compared to control HTF (culture time 15 hr)	sperm motility compared to control HTF (culture time 24 hr)	sperm motility throughout a 24-hr culture period
O=C[C@@H](O)[C@H](O)[C@H](O)CO [arabinose, reference compound]	= (Equivalent sperm motility compared to control HTF)	= (Equivalent sperm motility compared to control HTF)	= (Equivalent sperm motility compared to control HTF)	–
O=C[C@H](O)[C@@H](O)[C@@H](O)[C@H](O)CO [galactose, reference compound]	= (Equivalent sperm motility compared to control HTF)	= (Equivalent sperm motility compared to control HTF)	= (Equivalent sperm motility compared to control HTF)	–
O=C[C@H](O)[C@@H](O)[C@@H](O)[C@H](O)C(=O)O [galacturonic acid]	+	+	+	superior sperm motility
galactopyranosylarabinose	+	+	+	superior sperm motility
